Literature values in PMC3277211 (Journal of the American Chemical Society, 2011).

Tests used:
[1] = tested on: R. opacus DSM 1069; conditions: included for comparison
[2] = tested on: S. pneumoniae R800; conditions: included for comparison
[3] = tested on: S. pyogenes MGAS-1; conditions: included for comparison
[4] = tested on: P. aeruginosa PAO1; conditions: P. aeruginosa PAO1 wild type; included for comparison
[5] = tested on: C. glutamicum DSM 44475; conditions: included for comparison
[6] = tested on: P. aeruginosa P84L PAS2008; conditions: P. aeruginosa PAO1 LepB(P84L) PAS2008; included for comparison
[7] = tested on: S. aureus NCTC 8325; conditions: S. aureus NCTC 8325 wild type; included for comparison
[8] = tested on: E. coli P84L PAS0260; conditions: E. coli MG1655 LepB(P84L) PAS0260; included for comparison
[9] = tested on: S. agalactiae COH-1; conditions: included for comparison
[10] = tested on: S. aureus P29S PAS8001; conditions: S. aureus NCTC 8325 SpsB(P29S) PAS8001; included for comparison
[11] = tested on: S. epidermidis RP62A; conditions: included for comparison

Arylomycin A-C16
MIC [1]: 2 µg/mL | MIC [2]: 8 µg/mL | MIC [3]: 8 µg/mL | MIC [4]: >128 µg/mL | MIC [5]: 4 µg/mL | MIC [6]: 8 µg/mL | MIC [7]: >128 µg/mL | MIC [8]: 2 µg/mL | MIC [9]: >128 µg/mL | MIC [10]: 2 µg/mL | MIC [11]: 0.25 µg/mL
